Measured values reported in PMC11894153, “c-di-GMP inhibits rRNA methylation and impairs ribosome assembly in the presence of kanamycin” (EMBO Reports, 2025).
Substitutions are numbered along the chain they refer to.

What was measured:
[1] = molecular target: T1, RlmI (Escherichia coli, UniProt P75876, R103A); assay: ITC; assay type: binding
T1 construct: pCA24N or pGEX4T-1 plasmid; His tag detected by anti-His; purified
T1 sequence (P75876 1-396 R103A): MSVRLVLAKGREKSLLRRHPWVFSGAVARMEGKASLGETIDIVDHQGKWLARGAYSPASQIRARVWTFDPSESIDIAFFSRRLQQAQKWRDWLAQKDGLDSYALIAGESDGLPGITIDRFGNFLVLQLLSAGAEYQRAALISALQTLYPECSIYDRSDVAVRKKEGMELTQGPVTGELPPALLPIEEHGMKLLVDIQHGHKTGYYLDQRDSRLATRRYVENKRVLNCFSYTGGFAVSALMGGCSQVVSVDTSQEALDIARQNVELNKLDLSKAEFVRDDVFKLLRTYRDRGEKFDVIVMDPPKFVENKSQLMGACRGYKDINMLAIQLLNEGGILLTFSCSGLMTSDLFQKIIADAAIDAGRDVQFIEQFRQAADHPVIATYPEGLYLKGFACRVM

[2] = molecular target: T2, RlmI (Escherichia coli, UniProt P75876); assay: in vitro rRNA methylation, HPLC; assay type: biochemical
T2 construct: pCA24N or pGEX4T-1 plasmid; His tag detected by anti-His; purified
T2 sequence (P75876 1-396): T1 sequence (P75876 1-396 R103A) with A103R

[3] = molecular target: T3, RlmE (Escherichia coli, UniProt P0C0R7); assay: in vitro rRNA methylation, HPLC; assay type: biochemical
T3 construct: pCA24N or pGEX4T-1 plasmid; purified
T3 sequence (P0C0R7 1-209): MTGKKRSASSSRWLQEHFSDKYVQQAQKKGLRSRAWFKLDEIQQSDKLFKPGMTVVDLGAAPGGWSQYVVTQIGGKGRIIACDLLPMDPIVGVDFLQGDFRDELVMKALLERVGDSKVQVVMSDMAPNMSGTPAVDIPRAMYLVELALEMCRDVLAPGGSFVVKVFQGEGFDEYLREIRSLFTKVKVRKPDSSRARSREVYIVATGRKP

[4] = molecular target: T4, RlmI (Escherichia coli, UniProt P75876, R64A); assay: ITC; assay type: binding
T4 construct: pCA24N or pGEX4T-1 plasmid; His tag detected by anti-His; purified
T4 sequence (P75876 1-396 R64A): T1 sequence (P75876 1-396 R103A) with R64A, A103R

[5] = molecular target: T5, RlmI (Escherichia coli, UniProt P75876, K201A); assay: ITC; assay type: binding
T5 construct: pCA24N or pGEX4T-1 plasmid; His tag detected by anti-His; purified
T5 sequence (P75876 1-396 K201A): T1 sequence (P75876 1-396 R103A) with A103R, K201A

[6] = molecular target: T2, RlmI; assay: ITC; assay type: binding
[7] = molecular target: T6, RlmI (Escherichia coli, UniProt P75876, G114A); assay: ITC; assay type: binding
T6 construct: pCA24N or pGEX4T-1 plasmid; His tag detected by anti-His; purified
T6 sequence (P75876 1-396 G114A): T1 sequence (P75876 1-396 R103A) with A103R, G114A

Nc1nc2c(ncn2[C@@H]2O[C@@H]3CO[P@](=O)(O)O[C@H]4[C@@H](O)[C@H](n5cnc6c(=O)[nH]c(N)nc65)O[C@@H]4CO[P@](=O)(O)O[C@H]3[C@H]2O)c(=O)[nH]1 [c-di-GMP]
Kd [1]: 76.5 µM
inhibition at 5 µM [2]: 49%
inhibition at 5 µM [3]: 31%
Kd [4]: 102 µM
Kd [5]: 401 µM
Kd [6]: 1.3 µM
Kd [7]: 149 µM
